In article PMC4033643 (Chemical research in toxicology, 2014):
pIC50: −log10 of the molar value.

Tests used:
[1] = molecular target: T1, thioredoxin reductase 1 (TrxR1) (Rattus norvegicus, UniProt O89049); test: DTNB reduction assay with purified NADPH-reduced enzyme; format: biochemical
T1 sequence (O89049 1-499): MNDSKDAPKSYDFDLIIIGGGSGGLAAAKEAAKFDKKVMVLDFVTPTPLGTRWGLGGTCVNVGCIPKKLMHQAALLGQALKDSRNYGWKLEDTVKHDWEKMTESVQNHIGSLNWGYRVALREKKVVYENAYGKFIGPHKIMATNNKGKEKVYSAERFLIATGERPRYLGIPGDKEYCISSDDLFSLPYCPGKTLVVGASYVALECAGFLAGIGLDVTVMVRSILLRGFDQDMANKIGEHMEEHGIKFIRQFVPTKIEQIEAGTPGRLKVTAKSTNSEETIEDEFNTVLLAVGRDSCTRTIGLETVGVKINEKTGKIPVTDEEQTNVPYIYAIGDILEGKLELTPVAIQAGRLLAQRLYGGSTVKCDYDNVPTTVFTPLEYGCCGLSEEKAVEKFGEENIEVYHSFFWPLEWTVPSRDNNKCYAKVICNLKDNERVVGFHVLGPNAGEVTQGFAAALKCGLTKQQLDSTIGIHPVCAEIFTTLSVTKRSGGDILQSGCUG

[2] = molecular target: T2, human TrxR1 Sec498Cys mutant enzyme (Homo sapiens, UniProt Q16881, U648C); test: DTNB reduction assay with recombinant mutant enzyme; format: biochemical
T2 sequence (Q16881 151-649 U648C): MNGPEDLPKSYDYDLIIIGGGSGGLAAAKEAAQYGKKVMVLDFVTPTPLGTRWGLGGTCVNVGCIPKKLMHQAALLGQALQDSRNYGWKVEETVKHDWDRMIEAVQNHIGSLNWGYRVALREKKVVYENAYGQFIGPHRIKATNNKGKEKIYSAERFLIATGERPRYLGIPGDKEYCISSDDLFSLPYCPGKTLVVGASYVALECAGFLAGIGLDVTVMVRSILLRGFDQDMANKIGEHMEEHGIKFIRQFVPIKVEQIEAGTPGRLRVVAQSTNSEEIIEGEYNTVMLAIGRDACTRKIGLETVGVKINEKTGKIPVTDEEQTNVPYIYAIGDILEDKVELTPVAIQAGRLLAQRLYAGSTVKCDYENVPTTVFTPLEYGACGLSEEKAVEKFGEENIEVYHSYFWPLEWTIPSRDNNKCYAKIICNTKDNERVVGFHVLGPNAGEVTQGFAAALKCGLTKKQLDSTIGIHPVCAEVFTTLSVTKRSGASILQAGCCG

## CC(=O)N=C1C=CC(=O)C=C1 [NAPQI, N-acetyl-p-benzoquinone imine]
[1]
  pIC50: 7.64
[2]
  pIC50: 4.77
